Entries after “also recorded” stand apart in the source; their conditions may differ.

Format in all cases: in vivo
Data set [1] relates to SL biosynthesis genes D27, CCD7, CCD8, CO. Description: qRT-PCR transcript analysis of SL biosynthesis genes in rice roots. Conditions: 5 μM; for transcript levels of SL biosynthesis enzymes D27, CCD7, CCD8 and CO: wild-type rice seedlings, Pi-starvation, 6 h. Here is the method: For transcript analysis, one-week-old seedlings were grown hydroponically in half-strength modified Hoagland nutrient solution with K2HPO4.2H2O (+Pi) and without K2HPO4.2H2O (+Pi) (−Pi) for 7 days. Seedlings were further treated with zaxinone or MZ compounds for 6 h, and tissues were collected.
Roots of rice seedling were ground and homogenized in liquid nitrogen, and total RNA was isolated using a Direct-zol RNA Miniprep Plus Kit following the manufacturer's instructions (ZYMO RESEARCH; USA). cDNA was synthesized from 1 μg of total RNA using iScript cDNA Synthesis Kit (BIO-RAD Laboratories, Inc, 2000 Alfred Nobel Drive, Hercules, Calif.; USA) according to the instructions in the user manual. The gene expression level was detected by real-time quantitative RT-PCR (qRT-PCR) which was performed using SYBR Green Master Mix (Applied Biosystems; www.lifetechnologies.com) in a CFX384 Touch™ Real-Time PCR Detection System (BIO-RAD Laboratories, Inc, 2000 Alfred Nobel Drive, Hercules, Calif.; USA). The gene expression level was calculated by normalization of a housekeeping gene in rice, Ubiquitin (OsUBQ) (Table 1). The relative gene expression level was calculated according to 2-^ΔΔCT method.
(Real-time PCR tracks product formation cycle by cycle.)

The test system of a further data set is Striga hermonthica seeds. As to the kind of experiment: Striga hermonthica seed germination bioassay with root exudates of treated rice seedlings. Conditions: for decrease of Striga seed germination rate: exudates of rice seedlings treated with 5 μM compound, Pi starvation (FIG. 2). How it is done: For SL analysis, one-week-old seedlings were transferred into 50 ml falcon tubes (two seedlings per tube), containing half-strength Hoagland nutrient solution with K2HPO4.2H2O (+Pi), and grown in the biochamber for one week. Rice seedlings were then subjected to phosphate deficiency (−Pi) for another one week. On the day of root exudates collection, rice seedlings were first treated with 5 μM Zaxinone, or MZ compounds for 6 h, and then root exudates and root tissues were collected from each tube for LC-MS/MS analysis and Striga bioassays. Striga hermonthica seed germination bioassays were conducted by following the procedure as described previously. About 50-100 sterilized Striga seeds were spread on a glass fiber filter paper disc. Then 12 discs with Striga seeds were put on a sterilized filter paper, moistened with 3 ml sterilized water in a 90 mm petri plate. The plates were sealed with parafilm and cover with aluminum foil. All the plates were kept at 30° C. for 10 days for pre-conditioning. On 11th day, six dry discs with pre-conditioned seeds were selected and put in a 90 mm petri-dish. A filter paper ring moistened with 0.9 ml sterile MilliQ water was placed in the plate. The root exudates collected from Zaxinone or MZ compounds treated rice seedlings was applied at 50 μl on each six disc. Sterile MilliQ water and standard SL analog GR24 (2.5 μM) were included as a negative and positive control, respectively. After application, Striga seeds were incubated in dark at 30° C. for 24 hours. Germination (seeds with radicle emerging through seed coat) was scored under a binocular microscope, and germination rate (%) was calculated.

The nature of data set [2]: LC-MS analysis of rice plants fed with the mimics. As to conditions: data not shown; for conversion into the methoxy mimic (MZ3 or MZ5) in rice plants: rice plants fed with the mimic.
The test system of data set [3] is strigolactones (4-deoxyorobanchol, orobanchol) release. As to the kind of experiment: LC-MS/MS quantification of SLs in rice root exudates. As to conditions: 5 μM; for SL level / release in root exudates (4-DO, Oro): Pi starvation, in comparison with MZ1 and mock control (FIGS. 21A-21C); for SL level of the root exudate: wild-type rice seedlings, Pi-starvation, 6 h, compared with Zaxinone (FIGS. 19, 20A-20B). Here is the method:
For SL analysis, one-week-old seedlings were transferred into 50 ml falcon tubes (two seedlings per tube), containing half-strength Hoagland nutrient solution with K2HPO4.2H2O (+Pi), and grown in the biochamber for one week. Rice seedlings were then subjected to phosphate deficiency (−Pi) for another one week. On the day of root exudates collection, rice seedlings were first treated with 5 μM Zaxinone, or MZ compounds for 6 h, and then root exudates and root tissues were collected from each tube for LC-MS/MS analysis and Striga bioassays.
For the quantification of SLs in rice root exudates, 50 ml of root exudates spiked with 0.672 ng of D6-5-deoxystrigol, was brought on a 500 mg/3 ml fast SPE C18 column preconditioned with 6 ml of methanol and 3 ml of water. After washing with 3 ml of water, SLs were eluted with 5 ml of acetone. The 4-deoxyorobanchol fraction (acetone-water solution) was concentrated to SL aqueous solution (˜500 μl), followed by the extraction with 1 ml of ethyl acetate. 750 μl of SLs enriched organic phase was then transferred to 1.5 ml tube and evaporated to dryness under vacuum. The dried extract was dissolved in 100 μl of acetonitrile:water (25:75, v:v) and filtered through a 0.22 µm filter for LC-MS/MS analysis.

The next data set concerns Striga hermonthica. As to the kind of experiment: Striga hermonthica infection of rice in pots. Conditions: 5 μM, rice cv IAC-165 in pots with Striga infested soil (FIG. 13). How it is done: Pots experiment was conducted and slightly adapted from the protocol as described previously About 20 mg (ca 8000) Striga seeds were thoroughly mixed in 1.5 L sand and soil mixture (1:1) and added in 3 L perforated plastic pot containing 0.5 L clean soil in the bottom. The pots were kept in greenhouse-controlled conditions at 35° C. under moisture to preconditioned Striga seeds for 10 days. On 11th day, one week old five rice seedlings (cv IAC165) were planted in each pot. After three days of rice planting, each pot was first irrigated with 250 ml phosphorus deficient Hoaglands nutrient solution and after four hours of irrigation 25 ml formulated MZ3, MZ5 and Zaxinone (100 μM) were sprayed. Next day, each pot was again supplied with 250 ml nutrient solution to make the final concentration of each compound to 5 μM and to move the compound to rice seedlings. Pots with and without Striga seeds were kept as the negative and positive control. Each compound was applied twice in a week up to four weeks. The rice plants were grown under normal growth condition (30° C., 70% RH) for eight weeks. The number of emerged Striga plants in each pot were counted.

Another data set relates to wild-type rice plants. Description: Rice phenotypes in soil (rhizotron system). Conditions: 5 μM. Here is the method: For testing MZ3 and MZ5 on rice phenotypes in the rhizotron system (48 cm×24 cm×5 cm), three-day-old seedlings were grown in soil with half-strength modified Hoagland nutrient solution containing 0.4 mM K2HPO4.2H2O (+Pi) and 5 μM zaxinone for two weeks. The solution was changed every other day, adding the chemical at each renewal. To increase the compounds stability, 1 μl/ml emulsifier (cyclohexanone+Atlas […] kindly provided by a person […] of CRODA, Gouda; The Netherlands) was added into Hoagland nutrient solution. Root surface area was analyzed with the ImageJ software.

Data set [4] concerns Gigaspora margarita spores. Description: Gigaspora margarita spores germination. How it is done:
Spores were sterilized in a solution of Streptomycine sulphate (0.03% W/V) and Chloramine T (3% W/V) and germinated in 200 μl of MZ3 and MZ5 at 5 μM or 50 nM, GR24 10 nM or a solution of Water/Acetone (12.5 μl acetone in 25 ml water). For each treatments 96 sterilized spores were placed individually in the wells of a multi-well plate and treated with freshly prepared solutions at the beginning of the experiment and after 3 days. Spores were germinated in the dark at 30° C. and the germination rate was evaluated after 3 days and 7 days.

The mark [5] stands for this setting: roots and root exudates, Pi-starved WT rice, 6 hours.

On to `CC(=O)c1cccc(-c2cccc(-c3ccc(O)cc3)c2)c1` [MZ4, 1-(4″-hydroxy-[1,1′:3′,1″-terphenyl]-3-yl)ethan-1-one], for which, in data set [1], the “transcript levels of SL biosynthesis enzymes D27, CCD7, CCD8 and CO” value (from here on “transcript levels”) is “downregulating; also recorded: reduced”. Further, the “effect on Striga seed germination” value with Striga hermonthica seeds (exudates of rice plants treated at 5 μM, Pi starvation) is “did not suppress”. The “conversion into the methoxy mimic (MZ3 or MZ5) in rice plants” value in data set [2] is “not detected”. For the same compound, in data set [3], the “SL level / release in root exudates (4-DO, Oro)” value is given as “tendency to reduce” and the “SL level of the root exudate” value is “did not affect”.

For `CC(=O)/C=C/c1cccc(-c2ccc(O)cc2)c1` [MZ1], in data set [3], the “SL level of the root exudate” value is listed as “did not show significant activity”.

Take `CC(=O)c1cccc(-c2cccc(-c3cccc(-c4cccc(-c5ccc(O)cc5)c4)c3)c2)c1` [MZ6]: in data set [3], the “SL level of the root exudate” value is “did not show significant activity”.

Take `CC(=O)/C=C/c1cccc(Oc2ccc(O)cc2)c1` [MZ2, (E)-4-(3-(4-hydroxyphenoxy)phenyl)but-3-en-2-one]: the “transcript levels” value in data set [1] is listed as “downregulating; also recorded: reduced”. In addition, the “conversion into the methoxy mimic (MZ3 or MZ5) in rice plants” value in data set [2] is “not detected”. Moreover, in data set [3], the “SL level / release in root exudates (4-DO, Oro)” value was “significant decrease” and the “SL level of the root exudate” value is reported as “did not affect”.

Regarding `CC(=O)c1cccc(-c2cccc(-c3cccc(-c4cccc(-c5cccc(-c6ccc(C)cc6)c5)c4)c3)c2)c1` [MZ7], the “SL level of the root exudate” value in data set [3] is given as “did not show significant activity”.

As for `COc1ccc(-c2cccc(-c3cccc(C(C)=O)c3)c2)cc1` [MZ5], the “CCD7 and CO transcript level compared with Zaxinone” value in data set [1] (wild-type rice roots, Pi starvation, 6 h (FIGS. 12A-12D)) was “significantly lower”. Further, the “transcript levels” value in data set [1] is “pronounced decrease”. Moreover, the “reduction of the number of emerging Striga plants compared to the untreated control” value in the data set on Striga hermonthica is recorded as 55%. Moreover, the “root surface area and root numbers of WT plants compared with zaxinone treatment” value in the data set with wild-type rice plants was “increased more”. Moreover, the “decrease of Striga seed germination rate” value in the data set with Striga hermonthica seeds is around 46%. In addition, the “presence in shoots of rice plants fed through roots” value in data set [2] is reported as “detected”. Besides, in data set [4] (5 μM and 50 nM, 3 and 7 days), the spore germination rate result is “no effect”. In addition, in data set [3] (setting [5]), the “effect on 4-deoxyorobanchol relative to Zaxinone” value was “significantly stronger” and the “effect on SL levels relative to Zaxinone” value was “reduced SL levels more than zaxinone”. The “SL level of the root exudate” value in data set [3] was “obvious effect”.

As to `CC(=O)/C=C/C=C(C)/C=C/C1=C(C)CC(O)CC1(C)C` (stereo in doubt) [Zaxinone, reference compound], the “reduction of the number of emerging Striga plants compared to the untreated control” value with Striga hermonthica stood at 42%. The “decrease of Striga seed germination rate” value in the data set with Striga hermonthica seeds is given as “around 29%”. Besides, in data set [4] (Zaxinone, after 3 and 7 days), the spores germination result is recorded as “did not affect”.

`CC1=C[C@H](O/C=C2/C(=O)O[C@@H]3c4ccccc4C[C@H]23)OC1=O` [GR24, reference compound]: the spore germination rate result in data set [4] (GR24 10 nM) is recorded as “highest”.

These data come from patent publication US20220400669A1, “COMPOUNDS AND METHODS FOR PROMOTING PLANT GROWTH” (King Abdullah University of Science and Technology, priority 2019, published 2022).
